“Also recorded” adds a separate entry of the source. Read-outs that look alike come from different tables or passages of the source.
Experiments:
[1] = Cmax minimum active dose AHL versus Cmax minimum adverse effect dose; cited from earlier work
[2] = cited from earlier work; for Seizure activity / liability in vivo: rodents
[3] = test system: Schaffer collateral – CA1 (SC-CA1) synapse; conditions: cited from earlier work
rat mGlu5 [4] = target: T1, rat mGlu5 (Rattus norvegicus, UniProt P31424); conditions: cited from earlier work
CA3 pyramidal neurons = conditions: hippocampal preparations; prior studies; cited from earlier work
[5] = human; cited from earlier work
[6] = rat; cited from earlier work
[7] = cited from earlier work
mGlu5 W784A = mGlu5 W784A (Rattus norvegicus, UniProt P31424, W784A); test: Progressive fold-shift at mGlu5 point mutant, operational model of allosterism
[8] = test system: Schaffer collateral – CA1 (SC-CA1) synapse; test: Long-term depression; conditions: compound on its own, rat hippocampus
rat mGlu5 [9] = target: T1, rat mGlu5; conditions: operational model of allosterism
[10] = Amphetamine induced hyperlocomotion, in vivo model of psychosis; conditions: high dose, preliminary
mGlu5 S808A = mGlu5 S808A (Rattus norvegicus, UniProt P31424, S808A); test: Progressive fold-shift at mGlu5 point mutant, operational model of allosterism
rat mGlu5 [11] = target: T1, rat mGlu5; conditions: increasing concentrations
[12] = test system: panel of 68 GPCRs, ion channels and transporters; test: Off-target panel screen; format: binding; conditions: 10 µM, 68 targets

T1 sequence (P31424 21-1203): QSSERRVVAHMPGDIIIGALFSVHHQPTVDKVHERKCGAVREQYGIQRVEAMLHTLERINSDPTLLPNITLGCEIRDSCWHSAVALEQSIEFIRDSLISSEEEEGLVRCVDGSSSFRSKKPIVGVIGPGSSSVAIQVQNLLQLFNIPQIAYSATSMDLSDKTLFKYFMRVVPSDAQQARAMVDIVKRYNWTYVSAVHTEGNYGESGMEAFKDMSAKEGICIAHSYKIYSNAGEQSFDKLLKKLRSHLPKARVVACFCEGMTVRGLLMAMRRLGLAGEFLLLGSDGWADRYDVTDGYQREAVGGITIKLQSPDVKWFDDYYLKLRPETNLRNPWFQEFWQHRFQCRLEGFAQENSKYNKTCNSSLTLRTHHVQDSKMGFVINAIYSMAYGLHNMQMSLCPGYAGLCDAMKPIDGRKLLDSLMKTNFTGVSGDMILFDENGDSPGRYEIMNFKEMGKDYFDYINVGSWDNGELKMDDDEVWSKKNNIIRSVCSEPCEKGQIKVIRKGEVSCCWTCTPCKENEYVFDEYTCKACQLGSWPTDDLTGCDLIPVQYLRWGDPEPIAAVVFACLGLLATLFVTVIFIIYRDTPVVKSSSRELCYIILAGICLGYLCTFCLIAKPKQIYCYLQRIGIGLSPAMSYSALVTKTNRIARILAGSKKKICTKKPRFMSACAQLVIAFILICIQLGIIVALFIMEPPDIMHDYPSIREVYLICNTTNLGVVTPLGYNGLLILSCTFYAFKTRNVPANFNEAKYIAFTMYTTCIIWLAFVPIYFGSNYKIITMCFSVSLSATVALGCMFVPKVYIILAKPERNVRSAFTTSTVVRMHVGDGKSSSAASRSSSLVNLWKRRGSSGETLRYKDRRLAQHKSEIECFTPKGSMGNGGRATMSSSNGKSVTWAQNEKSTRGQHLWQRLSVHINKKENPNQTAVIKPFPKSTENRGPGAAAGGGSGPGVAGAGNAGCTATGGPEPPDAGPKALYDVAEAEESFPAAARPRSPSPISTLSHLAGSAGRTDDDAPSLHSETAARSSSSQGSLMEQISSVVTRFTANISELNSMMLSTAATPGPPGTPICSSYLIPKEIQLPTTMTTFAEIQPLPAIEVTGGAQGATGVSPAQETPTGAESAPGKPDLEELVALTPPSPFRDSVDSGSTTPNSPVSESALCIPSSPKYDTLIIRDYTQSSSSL
mGlu5 W784A, sequence (P31424 21-1203 W784A): as the sequence (P31424 21-1203) above, with W764A counted along it
mGlu5 S808A, sequence (P31424 21-1203 S808A): as the sequence (P31424 21-1203) above, with S788A counted along it

Structure (SMILES): C[C@@H]1CC[C@H](c2noc(-c3ccc(F)cn3)n2)CN1C(=O)c1ccccc1 [Compound 5PAM523]
- Therapeutic index [1]: 2 fold

Structure (SMILES): O=C1c2ccc(F)cc2CCC2CC[C@@H](c3noc(-c4ccc(F)cn4)n3)CN12 (stereo partly shown) [Compound 5PAM916]
- Therapeutic index [1]: 18 fold

Structure (SMILES): C[C@@H](NC(=O)c1ccc(C#Cc2cccc(F)c2)cn1)C(C)(C)O [Compound 19, (R)-5-((3-Fluorophenyl)ethynyl)-N-(3-hydroxy-3-methylbutan-2-yl)picolinamide]
- Seizure activity / liability in vivo [2]: causes seizure activity
- Induction of LTD at SC-CA1 synapse [3]: induces LTD
- Allosteric agonism in mGlu5 cell line with low receptor density (rat mGlu5 [4]): ago-PAM activity
- Epileptiform activity in CA3 pyramidal neurons (CA3 pyramidal neurons): induction of epileptiform activity

Structure (SMILES): O=C(c1ccc(C#Cc2cccc(F)c2)nc1)N1CCC(O)CC1 [Compound 20]
- Seizure activity / liability in vivo [2]: did not display a seizure liability
- Allosteric agonism in mGlu5 cell line with low receptor density (rat mGlu5 [4]): devoid of agonism

Structure (SMILES): O=C(NC1CCC1)c1ccc(C#Cc2cccc(F)c2)cn1 [Compound 21]
- Seizure liability in animal models [2]: possesses a seizure liability
- Plasma protein binding [5]: > 99 % bound
- fu plasma [5]: < 1%
- Agonist activity in mGlu5 low-expressing cell line (rat mGlu5 [4]): demonstrates agonist activity
- Plasma protein binding [6]: > 99 % bound
- fu plasma [6]: < 1%

Structure (SMILES): O=C(N[C@H]1C[C@H](O)C1)c1ccc(C#Cc2cccc(F)c2)cn1 [Compound 22]
- Agonist activity in mGlu5 low-expressing cell line (rat mGlu5 [4]): significant ago-PAM activity

Structure (SMILES): O=C(NC1CCC1)c1ccc(C#Cc2cccc(F)c2)nc1 [Compound 26]
- Plasma protein binding [7]: 98.9%

Structure (SMILES): C[C@@H](NC(=O)c1ccc(C#Cc2ccccn2)cn1)C(C)(C)O [Compound 31i, (R)-N-(3-Hydroxy-3-methylbutan-2-yl)-5-(pyridin-2-ylethynyl)picolinamide]
- Effect of W784A mutation (mGlu5 W784A): gain in allosteric agonist activity

Structure (SMILES): CC1(NC(=O)c2ccc(C#Cc3cccc(F)c3)cn2)COC1 [Compound 38t, 5-((3-Fluorophenyl)ethynyl)-N-(3-methyloxetan-3-yl)picolinamide]
- Induction of LTD at SC-CA1 synapse [8]: no effect; also recorded: does not induce LTD
- Efficacy cooperativity factor (logβ) between glutamate and modulator (rat mGlu5 [9]): 0.34
- Predicted affinity (log value) (rat mGlu5 [9]; progressive fold-shift): −6.81
- Behavioral disturbances [10]: no overt behavioral disturbances
- Reversal of amphetamine induced hyperlocomotion ([10]; data not shown): robust reversal
- Effect of S808A mutation (mGlu5 S808A): NAM switch
- Inhibition of [^3H]methoxyPEPy binding (rat mGlu5 [11]): complete inhibition
- Off target activity [12]: no significant off target activity
